According to ChEMBL document CHEMBL1201862, “PubChem BioAssay data set” (2004):
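Method: 48-hour compound exposure of cells in 96-well plates, five concentrations, linear interpolation of endpoints. At the GI50, growth is halved.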 Calls of active or inactive are those of the source. Rule as the data show it: active = GI50 up to about 1.1 µM and inactive = higher.

Experiments:
Test in all cases: inhibition of tumour cell growth, NCI panel, 48 h
[1] = test system: 786-0
[2] = test system: CCRF-CEM
[3] = test system: HCT-116
[4] = test system: HOP-62
[5] = test system: HOP-92
[6] = test system: HT-29
[7] = test system: IGROV-1
[8] = test system: M14
[9] = test system: Malme-3M
[10] = test system: NCI-H226
[11] = test system: NCI-H522
[12] = test system: OVCAR-8
[13] = test system: PC-3
[14] = test system: RPMI-8226
[15] = test system: SF-268
[16] = test system: SF-295
[17] = test system: SK-MEL-2
[18] = test system: SK-OV-3
[19] = test system: SW-620
[20] = test system: UACC-62

| Compound | GI50 [1] | GI50 [2] | GI50 [3] | GI50 [4] | GI50 [5] | GI50 [6] | GI50 [7] | GI50 [8] | GI50 [9] | GI50 [10] | GI50 [11] | GI50 [12] | GI50 [13] | GI50 [14] | GI50 [15] | GI50 [16] | GI50 [17] | GI50 [18] | GI50 [19] | GI50 [20] |
| --- | --- | --- | --- | --- | --- | --- | --- | --- | --- | --- | --- | --- | --- | --- | --- | --- | --- | --- | --- | --- |
| CSC1=NN=C(SC)NN1 | 0.182 µM (active) | 0.0243 µM (active) | 0.167 µM (active) | 0.201 µM (active) | 0.173 µM (active) | 0.173 µM (active) | 0.166 µM (active) | 0.184 µM (active) | 0.151 µM (active) | 0.181 µM (active) | 0.214 µM (active) | 0.285 µM (active) | 0.166 µM (active) | 0.261 µM (active) | 0.189 µM (active) | 0.198 µM (active) | 0.145 µM (active) | 0.186 µM (active) | 0.17 µM (active) | 0.148 µM (active) |
| O=C1CSC(c2ccccc2[N+](=O)[O-])N1c1ccc(-c2ccc(-n3c(-c4ccccc4)nc4ccccc4c3=O)cc2)cc1 (stereo not given) | > 100 µM (inactive) | 46.2 µM (inactive) | 82.6 µM (inactive) | > 100 µM (inactive) | 46.6 µM (inactive) | 62.2 µM (inactive) | 57.1 µM (inactive) | > 100 µM (inactive) | > 100 µM (inactive) | > 100 µM (inactive) | > 100 µM (inactive) | > 100 µM (inactive) | > 100 µM (inactive) | 90.2 µM (inactive) | 45.8 µM (inactive) | > 100 µM (inactive) | > 100 µM (inactive) | > 100 µM (inactive) | 36.4 µM (inactive) | 36.6 µM (inactive) |
| CC[P+]1(c2ccccc2)[C@@H](C)CC[C@@H]1C | > 100 µM (inactive) | > 100 µM (inactive) | > 100 µM (inactive) | > 100 µM (inactive) | 39.1 µM (inactive) | > 100 µM (inactive) | > 100 µM (inactive) | > 100 µM (inactive) | 97.1 µM (inactive) | > 100 µM (inactive) | > 100 µM (inactive) | > 100 µM (inactive) | 61.9 µM (inactive) | > 100 µM (inactive) | > 100 µM (inactive) | > 100 µM (inactive) | > 100 µM (inactive) | > 100 µM (inactive) | > 100 µM (inactive) | > 100 µM (inactive) |
| COc1ccc(C(C#N)NC23CC4CC(CC(C4)C2)C3)cc1 (stereo not given) | > 100 µM (inactive) | > 100 µM (inactive) | > 100 µM (inactive) | > 100 µM (inactive) | 67.9 µM (inactive) | > 100 µM (inactive) | > 100 µM (inactive) | > 100 µM (inactive) | > 100 µM (inactive) | > 100 µM (inactive) | > 100 µM (inactive) | > 100 µM (inactive) | > 100 µM (inactive) | > 100 µM (inactive) | > 100 µM (inactive) | > 100 µM (inactive) | > 100 µM (inactive) | > 100 µM (inactive) | > 100 µM (inactive) | > 100 µM (inactive) |
| Cc1nnc([C@@]2(C)CC[C@H]3[C@@H](CCC4=CC(=O)CC[C@@]43C)[C@@H]2CC#N)o1 | > 100 µM (inactive) | > 100 µM (inactive) | > 100 µM (inactive) | > 100 µM (inactive) | > 100 µM (inactive) | > 100 µM (inactive) | > 100 µM (inactive) | > 100 µM (inactive) | > 100 µM (inactive) | > 100 µM (inactive) | > 100 µM (inactive) | > 100 µM (inactive) | > 100 µM (inactive) | > 100 µM (inactive) | > 100 µM (inactive) | > 100 µM (inactive) | > 100 µM (inactive) | > 100 µM (inactive) | > 100 µM (inactive) | > 100 µM (inactive) |
| CC(=O)c1cc2c(s1)C(=O)c1ccsc1C2=O | 1.92 µM (inactive) | 0.335 µM (active) | 0.292 µM (active) | 0.491 µM (active) | 1.56 µM (inactive) | 1.85 µM (inactive) | 1.75 µM (inactive) | 0.28 µM (active) | 0.146 µM (active) | 1.6 µM (inactive) | 0.16 µM (active) | 0.373 µM (active) | 0.458 µM (active) | 3.85 µM (inactive) | 0.301 µM (active) | 0.16 µM (active) | 0.621 µM (active) | 1.87 µM (inactive) | 0.275 µM (active) | 0.255 µM (active) |
| COc1ccc(C2SCC(=O)N2c2ccc(-c3ccc(-n4c(-c5ccccc5)nc5ccccc5c4=O)cc3)cc2)cc1 (stereo not given) | 36.1 µM (inactive) | 28.6 µM (inactive) | 57.9 µM (inactive) | 69.8 µM (inactive) | 15.7 µM (inactive) | 12.7 µM (inactive) | 62.2 µM (inactive) | 85.7 µM (inactive) | 48.2 µM (inactive) | 65.3 µM (inactive) | 30.3 µM (inactive) | 78.7 µM (inactive) | 34 µM (inactive) | 21.6 µM (inactive) | > 100 µM (inactive) | 47 µM (inactive) | 26.6 µM (inactive) | > 100 µM (inactive) | 94.4 µM (inactive) | 33 µM (inactive) |
| O=c1c(-c2c(-c3ccccc3)oc3ccc(Cl)cc3c2=O)c(-c2ccccc2)oc2ccc(Cl)cc12 | > 100 µM (inactive) | > 100 µM (inactive) | > 78.3 µM (inactive) | > 39.7 µM (inactive) | > 59.7 µM (inactive) | > 100 µM (inactive) | > 56.2 µM (inactive) | > 100 µM (inactive) | > 100 µM (inactive) | > 100 µM (inactive) | > 100 µM (inactive) | > 74.1 µM (inactive) | > 100 µM (inactive) | > 100 µM (inactive) | > 49.9 µM (inactive) | > 51.8 µM (inactive) | > 100 µM (inactive) | > 51.4 µM (inactive) | > 100 µM (inactive) | > 82.8 µM (inactive) |
| COc1ccccc1NC(=O)CC(=O)n1nc(C)c(/N=N/c2ccccc2Cl)c1C | > 100 µM (inactive) | > 81.3 µM (inactive) | > 100 µM (inactive) | 58.3 µM (inactive) | > 93.8 µM (inactive) | > 100 µM (inactive) | > 100 µM (inactive) | > 100 µM (inactive) | > 100 µM (inactive) | > 100 µM (inactive) | > 100 µM (inactive) | > 100 µM (inactive) | > 100 µM (inactive) | > 100 µM (inactive) | > 76 µM (inactive) | 83.4 µM (inactive) | > 100 µM (inactive) | 48.3 µM (inactive) | > 100 µM (inactive) | > 100 µM (inactive) |
| CC12CC1C(c1cccc([N+](=O)[O-])c1)(c1cccc([N+](=O)[O-])c1)N=N2 (stereo not given) | 20.7 µM (inactive) | 3.36 µM (inactive) | 15.8 µM (inactive) | > 100 µM (inactive) | 14.1 µM (inactive) | 28 µM (inactive) | 20.3 µM (inactive) | 38.9 µM (inactive) | 18.2 µM (inactive) | 25.3 µM (inactive) | 6.7 µM (inactive) | 25.1 µM (inactive) | 25 µM (inactive) | 2.96 µM (inactive) | 27.7 µM (inactive) | 57 µM (inactive) | 44.7 µM (inactive) | > 100 µM (inactive) | 23.2 µM (inactive) | 15.9 µM (inactive) |
| O=C(O)CCC(C(=O)O)N1C(=O)c2ccccc2C1=O (stereo not given) | > 100 µM (inactive) | > 100 µM (inactive) | > 100 µM (inactive) | > 100 µM (inactive) | > 100 µM (inactive) | > 100 µM (inactive) | > 100 µM (inactive) | > 100 µM (inactive) | > 100 µM (inactive) | > 100 µM (inactive) | > 100 µM (inactive) | > 100 µM (inactive) | > 100 µM (inactive) | > 100 µM (inactive) | > 100 µM (inactive) | > 100 µM (inactive) | > 100 µM (inactive) | > 100 µM (inactive) | > 100 µM (inactive) | > 100 µM (inactive) |
| CO[C@@H]1C[C@H](OC(N)=O)[C@@H]2C=C[C@@H]3/C=C(C)/C=C/[C@@H](C)[C@H]([C@H](C)[C@H](O)[C@@H](C)NC(C)=O)OC(=O)/C=C/C=C(C)\C=C\[C@]3(C)[C@@H]2C1 | < 0.01 µM (active) | 0.322 µM (active) | < 0.01 µM (active) | < 0.01 µM (active) | < 0.01 µM (active) | < 0.01 µM (active) | < 0.01 µM (active) | < 0.01 µM (active) | < 0.01 µM (active) | < 0.01 µM (active) | < 0.01 µM (active) | 0.22 µM (active) | < 0.01 µM (active) | < 0.01 µM (active) | 0.767 µM (active) | < 0.01 µM (active) | 1.28 µM (inactive) | < 0.0504 µM (active) | < 0.01 µM (active) | < 0.01 µM (active) |
| O=C1C(N2CCN(c3ccccn3)CC2)=C(Cl)C(=O)c2ncccc21 | 1.78 µM (inactive) | 1.32 µM (inactive) | 1.71 µM (inactive) | > 10 µM (inactive) | 1.58 µM (inactive) | 2.88 µM (inactive) | > 7 µM (inactive) | 1.98 µM (inactive) | 1.3 µM (inactive) | > 10 µM (inactive) | 0.142 µM (active) | > 4.45 µM (inactive) | > 9.16 µM (inactive) | 0.353 µM (active) | > 6.1 µM (inactive) | > 10 µM (inactive) | 2.31 µM (inactive) | > 10 µM (inactive) | 1.23 µM (inactive) | 2.54 µM (inactive) |
| COc1cc2c(c3oc4c(O)cccc4c(=O)c13)CC(C(C)(O)CCl)O2 (stereo not given) | 0.889 µM (active) | 0.0277 µM (active) | 0.157 µM (active) | 0.733 µM (active) | 2.45 µM (inactive) | 0.0476 µM (active) | 2.03 µM (inactive) | 0.256 µM (active) | 2.06 µM (inactive) | 5.81 µM (inactive) | 1.73 µM (inactive) | 0.219 µM (active) | 1.22 µM (inactive) | 0.0661 µM (active) | 0.0728 µM (active) | 1.92 µM (inactive) | 1.36 µM (inactive) | 4.35 µM (inactive) | 0.0277 µM (active) | 0.728 µM (active) |
